These results are taken from patent US11274082B2, “Tead inhibitors and uses thereof” (Ikena Oncology, Inc., priority 2019, dated 2022).

Like-named read-outs stand apart in the source and are kept apart here.

The subject of data set [1] is H28. Description: Anti-proliferation assay in H28 cells. Format: cell-based. To be noted: Homo sapiens, NCI-H28. The method, then:
(§1) Certain compounds were tested in TEAD reporter assay, and in H226 and H28. A: EC50<0.1 uM; B: 0.1 uM≤EC50≤0.5 uM; C: EC50>0.5 uM.
(§2) Individual cell lines were grown in medium according to supplier instructions and seeded into 96-well plates at a density that ensured logarithmic growth over 72 hours. TEAD inhibitor compounds were administered to cells at a top concentration of 10 μm and subsequently a 10 point 3-fold serial dilution was conducted. After 72 hours, proliferation was quantified using Cell TITERGLO™ (Promega, Inc.) and compared to vehicle control. IC50 and EC50 values were generated using XLFit curve fitting software.

Data set [2] relates to TEAD. Briefly: TEAD reporter assay (Hippo Pathway TEAD Reporter - MCF7 cell line, luciferase). Format: cell-based. To be noted: Homo sapiens.
From the text: TEAD inhibition can be assayed using Hippo Pathway TEAD Reporter—MCF7 Cell Line (BPS Bioscience, Catalog #: 60618).
The TEAD Reporter—MCF7 cell line contains the firefly luciferase gene under the control of TEAD responsive elements stably integrated into the human breast cancer cell line, MCF7. Inside the cells, basal unphosphorylated YAP/TAZ remains in the nucleus and induces the constitutive expression of luciferase reporter. The cell line is validated for the inhibition of the expression of luciferase reporter by the activators of the Hippo pathway.
• 1) Harvest TEAD Reporter—MCF7 cells from culture in growth medium and seed cells at a density of 35,000 cells per well into white clear-bottom 96-well microplate in 45 μl of assay medium. • 2) Incubate cells at 37° C. in a CO2 incubator for overnight. • 3) Dilute the activators (H2O2 or okadaic acid) stock in assay medium. Add 5 μl of diluted activators to the wells. The final concentration of DMSO in assay medium is 0.1%. • 4) Add 5 μl of assay medium with same concentration of DMSO without activator to control wells. • 5) Add 50 μl of assay medium with DMSO to cell-free control wells (for determining background luminescence). • 6) Set up each treatment in at least triplicate. • 7) Incubate cells at 37° C. in a CO2 incubator for 5-6 hours. • 8) Perform luciferase assay using the ONE-Step™ Luciferase Assay System following the protocol provided: Add 100 μl of ONE-Step™ Luciferase reagent per well and rock at room temperature for ˜15 minutes. Measure luminescence using a luminometer. • 9) Data Analysis: Obtain the background-subtracted luminescence by subtracting the average background luminescence (cell-free control wells) from the luminescence reading of all wells.
as §1
For orientation: In a reporter assay the amount or activity of a reporter protein is the signal.

Data set [3] has as its system H226. Description: Anti-proliferation assay in H226 cells. The settings on record: Homo sapiens. Format: cell-based. The protocol: as §1, §2
Data set [4] in a line: Mouse pharmacokinetics study. Format: in vivo. The settings on record: BALB/c mice, 10 mg/kg by oral gavage in 5% DMS/95% PEG400, plasma. The method, then: Formulated compounds were administered intravenously or orally via gavage to BALB/c mice. Typically, at 0.167, 0.5, 1, 2, 4, 6, 12, and 24 hours post-dose, blood was collected and processed to plasma by centrifugation and stored at −80° C. until analysis. Internal standard was added to each sample prior to protein precipitation with acetonitrile or TCA. The precipitates were filtered through a filter plate and the samples were analyzed by LC/MS/MS. A standard curve was prepared in plasma from typically from 1.0 ng/mL to 3000 ng/mL and processed in the same manner as the samples. Sample analysis was typically performed on a suitable LC/MS/MS system fitted with an analytical UPLC column and compounds eluted from the analytical column with a gradient from 30-95% 0.1% formic acid (v/v) in ACN: 0.1% formic acid (v/v) in water. Mass spectrometric detection of test compound and the internal standard was performed by MRM in positive mode. The pharmacokinetics of each compound were analyzed by Phoenix WinNonlin software (Pharsight, St. Louis, Mo.) via noncompartmental analysis.

The mark [5] stands for this setting: TEAD Reporter - MCF7 cells, read-out: TEAD Reporter Assay EC50.
The mark [6] stands for this setting: NCI-H226, H226 cells, read-out: H226 EC50.

In the case of `CNS(=O)(=O)c1ccc(NCc2ccccc2)c(-c2nnn(C)n2)c1` [I-16, 4-(benzylamino)-N-methyl-3-(2-methyltetrazol-5-yl)benzenesulfonamide], the EC50 was greater than 500 nM in data set [1], 0.1 to 0.5 µM in data set [2] (setting [5]) and greater than 0.5 µM in data set [3] (setting [6]).

Take `Cn1nnc(-c2cc(B(O)O)ccc2Nc2cccc(C(F)(F)F)c2)n1` [I-17, [3-(2-methyltetrazol-5-yl)-4-[3-(trifluoromethyl)anilino]phenyl]boronic acid]: the figures for the EC50 in data set [1], in data set [2] (setting [5]) and in data set [3] (setting [6]) were greater than 500 nM, greater than 0.5 µM and greater than 0.5 µM, respectively.

In turn, `CNS(=O)(=O)c1ccc(NCc2ccccc2)c(-c2cn(C)cn2)c1` [I-27, 4-(Benzylamino)-N-methyl-3-(1-methylimidazol-4-yl)benzenesulfonamide] displayed an AUC(0-t) in data set [4] of 2250 ng·h/mL. In data set [4], the peak level (Cmax) was 1040 ng/mL. The values for the EC50 in data set [1], in data set [2] (setting [5]) and in data set [3] (setting [6]) were greater than 500 nM, less than 0.1 µM and less than 0.1 µM, respectively.

For the molecule `CNS(=O)(=O)c1ccc(N[C@H](C)c2ccccc2)c(-c2cn(C)cn2)c1` [I-30, N-Methyl-3-(1-methylimidazol-4-yl)-4-[[(1R)-1-phenylethyl]amino]benzenesulfonamide], in data set [4], the AUC(0-t) amounted to 887 ng·h/mL and the Cmax was found to be 882 ng/mL. Further, in data set [2] (setting [5]), the EC50 is less than 0.1 µM. Further, the EC50 in data set [3] (setting [6]) is less than 0.1 µM.

As to `CNS(=O)(=O)c1ccc(NCc2cccc(C(F)(F)F)c2)c(-c2cn(C)cn2)c1` [I-31, N-Methyl-3-(1-methyl-1H-imidazol-4-yl)-4-((3-(trifluoromethyl)benzyl)amino)benzenesulfonamide], in data set [4], the AUC(0-t) stood at 2520 ng·h/mL and the Cmax stood at 774 ng/mL. For the same molecule, the half-maximal effective concentration (EC50) in data set [2] (setting [5]) was less than 0.1 µM. For the same molecule, the EC50 in data set [3] (setting [6]) is less than 0.1 µM.

On to `CNS(=O)(=O)c1ccc(NCc2ccc(C(F)(F)F)cc2)c(-c2cn(C)cn2)c1` [I-32, N-Methyl-3-(1-methyl-1H-imidazol-4-yl)-4-((4-(trifluoromethyl)benzyl)amino)benzenesulfonamide], for which, in data set [4], the AUC(0-t) stood at 4580 ng·h/mL and the concentration peaked (Cmax) at 1090 ng/mL. Also, the EC50 in data set [2] (setting [5]) is less than 0.1 µM. Moreover, in data set [3] (setting [6]), the EC50 is less than 0.1 µM.

As to `CNS(=O)(=O)c1ccc(Nc2cc(C(F)(F)F)ccn2)c(-c2cn(C)cn2)c1` [I-33, N-Methyl-3-(1-methylimidazol-4-yl)-4-[[4-(trifluoromethyl)-2-pyridyl]amino]benzenesulfonamide], in data set [4], the AUC(0-t) amounted to 731 ng·h/mL. The same molecule displayed a Cmax in data set [4] of 420 ng/mL. Also, the EC50 in data set [2] (setting [5]) and in data set [3] (setting [6]) was less than 0.1 µM in each case.

On to `CNS(=O)(=O)c1cnc(Nc2cccc(C(F)(F)F)c2)c(-c2cn(C)cn2)c1` [I-36, N-Methyl-5-(1-methylimidazol-4-yl)-6-[3-(trifluoromethyl)anilino]pyridine-3-sulfonamide], for which, in data set [4], the AUC(0-t) was 595 ng·h/mL and the Cmax was found to be 213 ng/mL. Further, the EC50 in data set [2] (MCF7, read-out: TEAD Reporter Assay EC50 (uM)) was less than 0.1 µM. The EC50 in data set [3] (NCI-H226, read-out: H226 EC50 (uM)) was less than 0.1 µM.

In data set [4], `CCNS(=O)(=O)c1ccc(Nc2cc(C(F)(F)F)ccn2)c(-c2cn(C)cn2)c1` [I-37, N-Ethyl-3-(1-methylimidazol-4-yl)-4-[[4-(trifluoromethyl)-2-pyridyl]amino]benzenesulfonamide] gave an AUC(0-t) of 521 ng·h/mL and a peak concentration (Cmax) of 351 ng/mL. Moreover, in data set [2] (setting [5]), the EC50 is less than 0.1 µM. Further, the EC50 in data set [3] (setting [6]) is less than 0.1 µM.

Consider `CNS(=O)(=O)c1ccc(Nc2ccc(C(F)(F)F)cn2)c(-c2cn(C)cn2)c1` [I-38, N-Methyl-3-(1-methylimidazol-4-yl)-4-[[5-(trifluoromethyl)-2-pyridyl]amino]benzenesulfonamide], for which the AUC(0-t) in data set [4] stood at 25900 ng·h/mL. The molecule also displayed a Cmax in data set [4] of 1620 ng/mL. Also, the EC50 in data set [2] (setting [5]) and in data set [3] (setting [6]) was less than 0.1 µM in each case.

With `CNS(=O)(=O)c1ccc(Nc2ccc(OC(F)(F)F)cn2)c(-c2cn(C)cn2)c1` [I-84, N-Methyl-3-(1-methylimidazol-4-yl)-4-[[5-(trifluoromethoxy)-2-pyridyl]amino]benzenesulfonamide], the EC50 in data set [2] (setting [5]) and in data set [3] (setting [6]) was less than 0.1 µM in each case.

As for `CNS(=O)(=O)c1ccc(Nc2ccc(C(F)(F)F)cn2)c(-c2cn(C(C)C)cn2)c1` [I-85, 3-(1-isopropylimidazol-4-yl)-N-methyl-4-[[5-(trifluoromethyl)-2-pyridyl]amino]benzenesulfonamide], the EC50 in data set [2] (setting [5]) and in data set [3] (setting [6]) was less than 0.1 µM in each case.

On to `CNS(=O)(=O)c1ccc(Nc2ccc(C#N)cn2)c(-c2cn(C)cn2)c1` [I-86, 4-[(5-Cyano-2-pyridyl)amino]-N-methyl-3-(1-methylimidazol-4-yl)benzenesulfonamide], for which the figures for the EC50 in data set [2] (setting [5]) and in data set [3] (setting [6]) were greater than 0.5 µM and 0.1 to 0.5 µM, respectively.

In the case of `CNS(=O)(=O)c1ccc(Nc2cccc(C(F)(F)F)c2)c(-c2cn(C)cn2)c1` [P-12], in data set [4], the AUC(0-t) is 2330 ng·h/mL and the Cmax worked out at 558 ng/mL.

As for `CNS(=O)(=O)c1ccc(Nc2cccc(C(F)(F)F)c2)c(-c2nnn(C)n2)c1` [P-14], in data set [4], the AUC(0-t) was 622 ng·h/mL and the highest level (Cmax) was 210 ng/mL.

What is called EC50 is the concentration that produces a half-maximal response. Usually AUC(0-t) stands for exposure summed from dosing to a finite time, without extrapolation to infinity. Read a high AUC(0-t) as high exposure. For orientation: Cmax means the peak of the concentration-time curve.
